Experimental data published in the CheMixHub viscosity set.

Assay: xn = mol fraction of the nth substance listed

Cc1ccccc1C + C1COCCO1
308.15 K, 101 kPa
Settings	viscosity [mPa·s]
x2 = 0.1	0.676
x2 = 0.2	0.699
x2 = 0.3	0.723
x2 = 0.5	0.774
x2 = 0.6	0.806
x2 = 0.7	0.841
x2 = 0.8	0.879
x2 = 0.9	0.922

COCCOCCO + CC1COC(=O)O1
298.15 K, 101.33 kPa
Settings	viscosity [mPa·s]
x1 = 0.0342	2.506
x1 = 0.0633	2.515
x1 = 0.0849	2.524
x1 = 0.1101	2.537
x1 = 0.1406	2.548
x1 = 0.1617	2.559
x1 = 0.1739	2.568
x1 = 0.2188	2.601
x1 = 0.2694	2.645
x1 = 0.3234	2.698
x1 = 0.3696	2.751
x1 = 0.3809	2.771
x1 = 0.4421	2.844
x1 = 0.4715	2.886
x1 = 0.5373	2.97
x1 = 0.5688	3.011
x1 = 0.6187	3.063
x1 = 0.6576	3.108
x1 = 0.7503	3.217
x1 = 0.7761	3.248
x1 = 0.7996	3.269
x1 = 0.8142	3.282
x1 = 0.8452	3.313
x1 = 0.9062	3.367
x1 = 0.9414	3.404
x2 = 0.0198	3.432

Cc1ccccc1C + CC1COC(=O)O1
303.15 K, 101.3 kPa
Settings	viscosity [mPa·s]
x2 = 0.1383	0.8178
x2 = 0.2653	0.9124
x2 = 0.3824	1.011
x2 = 0.4906	1.12
x2 = 0.5909	1.244
x2 = 0.6842	1.384
x2 = 0.7712	1.547
x2 = 0.8525	1.733
x2 = 0.9286	1.937

CCC#N + CC#N
298 K, 101.33 kPa
Settings	viscosity [mPa·s]
x1 = 0.1298	0.35
x1 = 0.2716	0.36
x1 = 0.4271	0.374
x1 = 0.5986	0.384
x1 = 0.7885	0.402

CCCCCCCCCCO + CC#N
viscosity [mPa·s], 101 kPa
Settings	298.15 K	303.15 K	308.15 K
x2 = 0.0939	8.794	7.622	6.471
x2 = 0.2005	6.554	5.66	4.934
x2 = 0.301	4.932	4.226	3.648
x2 = 0.3902	3.872	3.394	2.877
x2 = 0.4935	2.848	2.467	2.15
x2 = 0.6249	1.83	1.678	1.441
x2 = 0.7216	1.302	1.189	1.053
x2 = 0.7933	1.021	0.864	0.777
x2 = 0.8544	0.79	0.636	0.586
x2 = 0.9006	0.548	0.51	0.479
x2 = 0.9382	0.46	0.431	0.411
x2 = 0.9708	0.395	0.379	0.358

CCC#N + CC(=O)N(C)C
303.15 K, 101.33 kPa
Settings	viscosity [mPa·s]
x1 = 0.0953	0.8264
x1 = 0.2	0.7648
x1 = 0.3021	0.7092
x1 = 0.3926	0.6613
x1 = 0.4985	0.6082
x1 = 0.595	0.5621
x1 = 0.699	0.5131
x1 = 0.795	0.4684
x1 = 0.9013	0.425

CCOC(=O)OCC + CC(=O)N(C)C
298.15 K, 101 kPa
Settings	viscosity [mPa·s]
x1 = 0.1371	0.925
x1 = 0.2045	0.912
x1 = 0.2821	0.896
x1 = 0.3603	0.881
x1 = 0.4462	0.865
x1 = 0.5333	0.849
x1 = 0.6265	0.831
x1 = 0.7265	0.811
x1 = 0.7839	0.8
x1 = 0.8296	0.79
x1 = 0.8887	0.778

CC(C)[C@@H]1CC[C@@H](C)C[C@H]1O + CC(=O)O
100 kPa, x1 = 0.5
Settings	viscosity [mPa·s]
293.15 K	11.3
298.15 K	8.691
303.15 K	6.904
308.15 K	5.59
313.15 K	4.564
318.15 K	3.843
323.15 K	3.251
